The target of one experiment is Aβ25-35 peptide (Homo sapiens, UniProt P05067). Put plainly: Antifibrillogenic activity, thioflavine T (ThT) assay with Aβ25-35 peptide. It is filed as biochemical. As to conditions: compound 30 μM, Aβ25-35 peptide 100 μM, 50 μM phosphate buffer pH 5, 25° C., 24 hours; ThT 47 μM; ex 420 nm, em 490 nm; less fluorescence = less amyloid; read-out: ThT fluorescence (% of control). As for the experimental part: The compounds of the present invention are also endowed with antifibrillogenic activity. When Aβ peptides are incubated with the compounds, a reduction in the formation of amyloid fibrils is observed. The amount of amyloid that results from peptide aggregation can be evaluated using the thioflavine T (ThT) assay as reported in the literature by Naiki et al., Analytical Biochemistry 1989, vol. 177, p. 244 and by H. LeVine III, Protein Science 1993, vol.2, p. 404. Compounds are incubated at a concentration of 30 μM, in 50 μM phosphate buffer pH 5 at 25° C. during 24 hours, with 100 μM peptide. The incubated samples are then diluted with sodium citrate buffer pH 5 containing 47 μM ThT. Fluorescence was measured with excitation at 420 nm and emission at 490 nm in a Kontron fluorescence spectrophotometer and the values were averaged after subtracting the background fluorescence of ThT. The less the fluorescence the less the amount of amyloid formed during the incubation period.
The following data obtained with the Aβ25-35 peptide are reported as examples.

The target in the next experiment is Aβ25-35 fibrils (Homo sapiens, UniProt P05067). Put plainly: Binding of anthracyclinones and anthracyclines to Aβ25-35 fibrils (fluorescent detection of bound compound). The settings on record: 10% dimethylsulfoxide in distilled water, 60 minutes, room temperature, rectangular hyperbola (binding isotherm), read-out: EC50 (affinity of the test compounds for the Aβ fibrils). As for the experimental part:
Binding of anthracyclinones and anthracyclines to Aβ fibrils
Fibrils from Aβ25-35 peptide are suspended in a solution of 10% dimethylsulfoxide in distilled water containing the test compound at various concentrations and incubated at room temperature for 60 minutes. After incubation, the samples are centrifuged at 15000 g for 10 minutes at room temperature and the supernatant withdrawn. Fibril pellets are washed three times with 0.3 ml of 10% DMSO in distilled water, dissolved in ethanol and the bound compound is quantified by fluorescent detection. EC50 are then calculated using rectangular hyperbola (binding isotherm) equation and represents the affinity of the test compounds for the Aβ fibrils.

For the next experiment, the system named is Aβ1-40 fibrils. In words: Binding to Aβ1-40 fibrils (filtration, HPLC quantification of bound compound). As to conditions: 3% dimethylsulfoxide in water, 15 minutes, room temperature, Hill equation. As for the experimental part: The precipitated fibrils are centrifuged, washed with distilled water, centrifuged again and resuspended in distilled water at a concentration of […]. The fibril suspension is sonocated for one minute and freezed at -20° C. in aliquots until use. […] The resulting suspension is incubated at room temperature for 15 minutes. After incubation, the suspension is loaded onto a Millipore ultrafree MC filter (0.22 μm pore retention) and centrifuged for 5 minutes at 4° C. […] The amount of bound compound is quantified by HPLC. The aspecific binding of the compounds to the filter is evaluated by processing samples of the compounds, as previously described, in the absence of fibrils. The amount of compound bound to the filter is subtracted from the total binding value obtained in the presence of fibrils. Binding parameters were estimated by computerised non-linear regression analysis according to the Hill equation. Data are expressed as nanomoles of compound bound per mg of peptide monomer (Bmax)

SMILES strings stand for the structures.

As for `COc1cccc2c1C(=O)c1c(O)c3c(c(O)c1C2=O)C[C@@](O)(C(=O)CO)C[C@@H]3O[C@H]1C[C@H](NC(=O)C(F)(F)F)[C@H](I)[C@H](C)O1` [Compound A1, N-trifluoroacetyl-4'-iododoxorubicin], on Aβ25-35 peptide, the remaining activity at 30 µM is 20.6%.

As for `COc1cccc2c1C(=O)c1c(O)c3c(c(O)c1C2=O)C[C@@](O)(C(=O)CN1CCN(C(=O)C(F)(F)F)CC1)C[C@@H]3O` [Compound A2, 14-(4-trifluoroacetylpiperazin-1-yl)-daunomycinone], the remaining activity at 30 µM at Aβ25-35 peptide is 22.2%.

In general, EC50 refers to the midpoint of the concentration-response curve. Consider `COc1cccc2c1C(=O)c1c(O)c3c(c(O)c1C2=O)C[C@@](O)(C(=O)CN1CCN(S(=O)(=O)C(F)(F)F)CC1)C[C@@H]3O` [Compound A3, 14-(4-trifluoromethanesulphonylpiperazin-1-yl)-daunomycinone], for which the remaining activity at 30 µM on Aβ25-35 peptide amounted to 23%. In addition, on Aβ25-35 fibrils, the EC50 came out at 8.16 ± 1.32 µM.

On to `COc1cccc2c1C(=O)c1c(O)c3c(c(O)c1C2=O)C[C@@](O)(C(=O)CN1CCN(c2cccc(C(F)(F)F)c2)CC1)C[C@@H]3O` [Compound A4, 14-[4-(3-trifluoromethylphenyl)piperazin-1-yl]-daunomycinone], for which the remaining activity at 30 µM at Aβ25-35 peptide was found to be 22.3%.

Regarding `CCN(CC(=O)[C@]1(O)Cc2c(O)c3c(c(O)c2[C@@H](O)C1)C(=O)c1c(OC)cccc1C3=O)Cc1cc(C(F)(F)F)cc(C(F)(F)F)c1` [Compound A5, 14-[N-ethyl-N-(3,5-bis-trifluoromethylphenyl)methyl]daunomycinone], the remaining activity at 30 µM on Aβ25-35 peptide was found to be 23.1%. Further, the “Bmax (nanomoles of compound bound per mg of peptide monomer)” value in the experiment with Aβ1-40 fibrils is reported as 223.1 nmoles/mg Aβ1-40.

Take `COc1cccc2c1C(=O)c1c(O)c3c(c(O)c1C2=O)C[C@@](O)(C(=O)CN(Cc1ccccc1)CC(F)(F)F)C[C@@H]3O` [Compound A6, 14-[N-benzyl-N-(2,2,2-trifluoroethyl)]amino-daunomycinone]: the remaining activity at 30 µM at Aβ25-35 peptide came to 35%.

Consider `COc1cccc2c1C(=O)c1c(O)c3c(c(O)c1C2=O)C[C@@](O)(C(=O)CN1CC=CCC1)C[C@@H]3O[C@H]1C[C@H](NC(=O)C(F)(F)F)[C@H](I)[C@H](C)O1` [Compound A7, 14-(1,2,3,6-tetrahydropyridin-1-yl)-4'-deoxy-4'-iodo-3'-N-trifluoroacetyl daunorubicin], for which the remaining activity at 30 µM at Aβ25-35 peptide was 33.2%.

On to `COc1cccc2c1C(=O)c1c(O)c3c(c(O)c1C2=O)C[C@@](O)(C(=O)CO)C[C@@H]3O[C@H]1C[C@H](N)[C@H](I)[C@H](C)O1` [IDOX, iododoxorubicin, reference compound], for which, on Aβ25-35 peptide, the remaining activity at 30 µM came out at 41%. On Aβ25-35 fibrils, the EC50 is 52 ± 10.7 µM. Besides, the “Bmax (nanomoles of compound bound per mg of peptide monomer)” value with Aβ1-40 fibrils is 122.2 nmoles/mg Aβ1-40.

For the origin of these results see patent US6103700A, “Fluoro labelled anthracyclinone and anthracycline derivatives” (Pharmacia & Upjohn S.p.A., priority 1996, dated 2000).
